Key:
[1] = tested on: Puccinia recondita f. Sp. Tritici; assay: Fungicidal activity against Puccinia recondita f. sp. tritici / wheat / leaf disc curative (brown rust); assay type: in vivo; settings: foliar, 24 h, 200 ppm in the applied formulation, wheat leaf segments, curative (applied 1 day after inoculation), compared to untreated control leaf disks, read-out: disease control
Outline: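 Inoculate cv. Kanzler segments on agar; hold dark, 19° C, 75% RH. Spray diluted formulated compound at day 1. Incubate 12 h light/12 h dark, same temperature and humidity; score % control vs untreated 6–8 days later.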

[2] = tested on: Puccinia recondita f. Sp. Tritici; assay: Fungicidal activity against Puccinia recondita f. sp. tritici / wheat / leaf disc preventative (brown rust); assay type: in vivo; settings: foliar, 200 ppm in the applied formulation, wheat leaf segments, preventative, compared to untreated control leaf disks, read-out: disease control
Outline: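 Preventative leaf-segment test, wheat cv. Kanzler on water agar. Spray compound at 200 ppm, inoculate with spores 1 day later; 19° C., 75% rh, 12/12 h light. Read-out: % disease control vs untreated, 7 to 9 days after application.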

[3] = tested on: Glomerella lagenarium (Colletotrichum lagenarium); assay: Fungicidal activity against Glomerella lagenarium (Colletotrichum lagenarium) liquid culture / cucumber / preventative (anthracnose); assay type: cell-based; settings: Colletotrichum orbiculare; 20 ppm in the applied formulation; liquid culture (PDB), growth inhibition measured photometrically after 3 to 4 days; compared to untreated control; read-out: disease control
Outline: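 Photometric read-out of fungal growth after 2–7 days, expressed as percent antifungal activity versus untreated check. Cryo-stored conidia in PDB; compound at 20 ppm; dark, 24 °C, 96% RH.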

[4] = tested on: Phakopsora Pachyrhizi; assay: Fungicidal activity against Phakopsora pachyrhizi / soybean / leaf disc preventative (Asian soybean rust); assay type: in vivo; settings: foliar, 200 ppm in the applied formulation, soybean leaf disks, compared to untreated control leaf disks, read-out: disease control
Outline: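 Preventative soybean leaf-disc test: discs on water agar sprayed with diluted formulated compound, inoculated one day later with spores on the lower surface. Held 24–36 h dark at 20°C, 75% rh, then 12 h light/day; percent disease control versus untreated discs scored 12–14 days after application.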

COCCN(Cc1ccc(-c2noc(C(F)(F)F)n2)cc1)C(=O)C(C)C [Compound 1.325, N-(2-methoxyethyl)-2-methyl-N-[[4-[5-(trifluoromethyl)-1,2,4-oxadiazol-3-yl]phenyl]methyl]-propanamide]
≥ 80%: pest or weed control at 200 ppm [1] | pest or weed control at 200 ppm [2] | inhibition of growth at 20 ppm [3] | pest or weed control at 200 ppm [4]

CCN(Cc1ccc(-c2noc(C(F)(F)F)n2)cc1)C(=O)CCOC [Compound 1.496, N-ethyl-3-methoxy-N-[[4-[5-(trifluoromethyl)-1,2,4-oxadiazol-3-yl]phenyl]methyl]-propanamide]
≥ 80%: pest or weed control at 200 ppm [1] | pest or weed control at 200 ppm [2] | inhibition of growth at 20 ppm [3] | pest or weed control at 200 ppm [4]

CON(Cc1ccc(-c2noc(C(F)(F)F)n2)cc1)C(=O)C1CC1(F)F (stereo not shown) [Compound 1.15, 2,2-difluoro-N-methoxy-N-[[4-[5-(trifluoromethyl)-1,2,4-oxadiazol-3-yl]phenyl]methyl]-cyclopropane-carboxamide]
≥ 80%: pest or weed control at 200 ppm [1] | pest or weed control at 200 ppm [2] | inhibition of growth at 20 ppm [3] | pest or weed control at 200 ppm [4]

CON(Cc1ccc(-c2noc(C(F)(F)F)n2)cc1)C(=O)c1ccccc1 [Compound 1.3, N-methoxy-N-[[4-[5-(trifluoromethyl)-1,2,4-oxadiazol-3-yl]phenyl]methyl]-benzamide]
≥ 80%: pest or weed control at 200 ppm [1] | pest or weed control at 200 ppm [2] | inhibition of growth at 20 ppm [3] | pest or weed control at 200 ppm [4]

C=C(C)C(=O)N(Cc1ccc(-c2noc(C(F)(F)F)n2)cc1)C1CC1 [Compound 1.122, N-cyclopropyl-2-methyl-N-[[4-[5-(trifluoromethyl)-1,2,4-oxadiazol-3-yl]phenyl]methyl]prop-2-enamide]
≥ 80%: pest or weed control at 200 ppm [1] | pest or weed control at 200 ppm [2] | inhibition of growth at 20 ppm [3] | pest or weed control at 200 ppm [4]

CCOCC(=O)N(OC)C(C)c1ccc(-c2noc(C(F)(F)F)n2)cc1 (stereo not shown) [Compound 1.264, 2-ethoxy-N-methoxy-N-[1-[4-[5-(trifluoromethyl)-1,2,4-oxadiazol-3-yl]phenyl]ethyl]-acetamide]
≥ 80%: pest or weed control at 200 ppm [1] | pest or weed control at 200 ppm [2] | inhibition of growth at 20 ppm [3] | pest or weed control at 200 ppm [4]

COCC(=O)N(Cc1ccc(-c2noc(C(F)(F)F)n2)cc1)C1CC1 [Compound 1.777, N-cyclopropyl-2-methoxy-N-[[4-[5-(trifluoromethyl)-1,2,4-oxadiazol-3-yl]phenyl]methyl]-acetamide]
≥ 80%: pest or weed control at 200 ppm [1] | pest or weed control at 200 ppm [2] | inhibition of growth at 20 ppm [3] | pest or weed control at 200 ppm [4]

CON(Cc1c(F)cc(-c2noc(C(F)(F)F)n2)cc1F)C(=O)C1CCCO1 (stereo not shown) [Compound 1.597, N-[[2,6-difluoro-4-[5-(trifluoromethyl)-1,2,4-oxadiazol-3-yl]phenyl]methyl)-N-methoxy-tetrahydrofuran-2-carboxamide]
≥ 80%: pest or weed control at 200 ppm [1] | pest or weed control at 200 ppm [2] | inhibition of growth at 20 ppm [3] | pest or weed control at 200 ppm [4]

O=C(c1ccccc1Cl)N(Cc1ccc(-c2noc(C(F)(F)F)n2)cc1)C1COC1 [Compound 1.740, 2-chloro-N-(oxetan-3-yl)-N-[[4-[5-(trifluoromethyl)-1,2,4-oxadiazol-3-yl]phenyl]methyl]-benzamide]
≥ 80%: pest or weed control at 200 ppm [1] | pest or weed control at 200 ppm [2] | inhibition of growth at 20 ppm [3] | pest or weed control at 200 ppm [4]

O=C(C1CC1(F)F)N(O)Cc1ccc(-c2noc(C(F)(F)F)n2)cc1 (stereo not shown) [Compound 1.753, 2,2-difluoroN-hydroxy-N-[[4-[5-(trifluoromethyl)-1,2,4-oxadiazol-3-yl]phenyl]methyl]-cyclopropane-carboxamide]
≥ 80%: pest or weed control at 200 ppm [1] | pest or weed control at 200 ppm [2] | inhibition of growth at 20 ppm [3] | pest or weed control at 200 ppm [4]

CCCN(Cc1ccc(-c2noc(C(F)(F)F)n2)cc1)C(=O)C1CC1 [Compound 1.574, N-propyl-N-[[4-[5-(trifluoromethyl)-1,2,4-oxadiazol-3-yl]phenyl]methyl]-cyclopropane-carboxamide]
≥ 80%: pest or weed control at 200 ppm [1] | pest or weed control at 200 ppm [2] | inhibition of growth at 20 ppm [3] | pest or weed control at 200 ppm [4]

CON(Cc1ccc(-c2noc(C(F)(F)F)n2)cc1)C(=O)C(C)C [Compound 1.12, N-methoxy-2-methyl-N-[[4-[5-(trifluoromethyl)-1,2,4-oxadiazol-3-yl]phenyl]methyl]-propanamide]
≥ 80%: pest or weed control at 200 ppm [1] | pest or weed control at 200 ppm [2] | inhibition of growth at 20 ppm [3] | pest or weed control at 200 ppm [4]

COCCCC(=O)N(CCO)Cc1ccc(-c2noc(C(F)(F)F)n2)cc1 [Compound 1.724, N-(2-hydroxyethyl)-4-methoxy-N-[[4-[5-(trifluoromethyl)-1,2,4-oxadiazol-3-yl]phenyl]methyl]-butanamide]
≥ 80%: pest or weed control at 200 ppm [1] | pest or weed control at 200 ppm [2] | inhibition of growth at 20 ppm [3] | pest or weed control at 200 ppm [4]

COC(C)C(=O)N(O)Cc1ccc(-c2noc(C(F)(F)F)n2)cc1 (stereo not shown) [Compound 1.772, N-hydroxy-2-methoxy-N-[[4-[5-(trifluoromethyl)-1,2,4-oxadiazol-3-yl]phenyl]methyl]-propanamide]
≥ 80%: pest or weed control at 200 ppm [1] | pest or weed control at 200 ppm [2] | inhibition of growth at 20 ppm [3] | pest or weed control at 200 ppm [4]

CCNC(=O)N(Cc1ccc(-c2noc(C(F)(F)F)n2)cc1)OC [Compound 3.12, 3-ethyl-1-methoxy-1-[[4-[5-(trifluoromethyl)-1,2,4-oxadiazol-3-yl]phenyl]methyl]urea]
≥ 80%: pest or weed control at 200 ppm [1] | pest or weed control at 200 ppm [2] | inhibition of growth at 20 ppm [3] | pest or weed control at 200 ppm [4]

COCCN(Cc1ccc(-c2noc(C(F)(F)F)n2)cc1)C(=O)C(C)OC (stereo not shown) [Compound 1.359, 2-methoxy-N-(2-methoxyethyl)-N-[[4-[5-(trifluoromethyl)-1,2,4-oxadiazol-3-yl]phenyl]methyl]-propanamide]
≥ 80%: pest or weed control at 200 ppm [1] | pest or weed control at 200 ppm [2] | inhibition of growth at 20 ppm [3] | pest or weed control at 200 ppm [4]

COC(C)(C)C(=O)N(C)Cc1ccc(-c2noc(C(F)(F)F)n2)cc1 [Compound 1.782, 2-methoxy-N,2-dimethyl-N-[[4-[5-(trifluoromethyl)-1,2,4-oxadiazol-3-yl]phenyl]methyl]-propanamide]
≥ 80%: pest or weed control at 200 ppm [1] | pest or weed control at 200 ppm [2] | inhibition of growth at 20 ppm [3] | pest or weed control at 200 ppm [4]

O=C(N(Cc1ccc(-c2noc(C(F)(F)F)n2)cc1)C1CC1)C1(C(F)(F)F)CCC1 [Compound 1.92, N-cyclopropyl-1-(trifluoromethyl)-N-[[4-[5-(trifluoromethyl)-1,2,4-oxadiazol-3-yl]phenyl]methyl]-cyclobutane-carboxamide]
≥ 80%: pest or weed control at 200 ppm [1] | pest or weed control at 200 ppm [2] | inhibition of growth at 20 ppm [3] | pest or weed control at 200 ppm [4]

C=CCN(Cc1ccc(-c2noc(C(F)(F)F)n2)cc1)C(=O)C1(C)COC1 [Compound 1.488, N-allyl-3-methyl-N-[[4-[5-(trifluoromethyl)-1,2,4-oxadiazol-3-yl]phenyl]methyl]-oxetane-3-carboxamide]
≥ 80%: pest or weed control at 200 ppm [1] | pest or weed control at 200 ppm [2] | inhibition of growth at 20 ppm [3] | pest or weed control at 200 ppm [4]
